From US9249118B2, “Purifying crude furan 2,5-dicarboxylic acid by hydrogenation” (Eastman Chemical Company, priority 2012, dated 2016)

Assay: solubility of FDCA in water at different temperatures (FIG. 1)
Type: physicochemical
Details: ambient pressure, as the water temperature increases beyond 130° C. (FIG. 1)
Method: FIG. 1 depicts the solubility of FDCA in water at different temperatures.
Suitable dissolution temperatures are those effective to dissolve the desired amount of FDCA solids into solution. The hydrogenation solvent composition may be added at (by pre-heating) or heated in the dissolution zone to a temperature of at least 120° C. under a pressure and time sufficient to allow for at least 80 wt. % dissolution, although to reduce the time required for dissolution, it is desirable that the hydrogenation solvent composition temperature is at least 130° C., or at least 135° C., or at least 140° C., or at least 150° C.

O=C(O)c1ccc(C(=O)O)o1 [FDCA, Furan 2,5-dicarboxylic acid]
solubility of FDCA in water: increases dramatically
